The results in this text go back to patent publication US20150210740A1, “PSEUDOURIDIMYCIN (PUM) AND ITS DERIVATIVES” (NEW-ANTI-INFECTIVES CONSORTIUM S.C.A.R.L., priority 2012, published 2015).

SMILES strings stand for the structures. ≈ marks a conversion by molar mass, not a printed value. Like-named read-outs stand apart in the source and are kept apart here.

In one test the test system is NSO nuclear extract. Briefly: RNAP inhibition, NSO nuclear extract. Format: biochemical, mouse.
The next test deals with T1, E. coli RNAP (Escherichia coli, UniProt P0A8T7+P0A8V2).
T1 construct: an RNAP purified from either Escherichia coli (Sigma Aldrich) or Bacillus subtilis; purchased Sigma Aldrich; host or cells: Escherichia coli
Briefly: RNAP inhibition, E. coli RNAP. Type of test: biochemical. As for the experimental part:
(§1) The effect of PUM on bacterial RNAP is measured using an RNAP purified from either Escherichia coli (Sigma Aldrich) or Bacillus subtilis as described by Qi and Hulett (Qi Y, Hulett F M., Mol. Microbiol. 1998, 28(6):1187-1197). The bacterial RNAPs are used at 1.1 mg/ml, while the RNAP from bacteriophage T7 (Promega Corporation) is used at 20 U/ml. The nuclear extracts from HeLa cells (Human cervix carcinoma fibroblast; Promega Corporation) or NSO cells (non IgG secreting mouse myeloma lymphoblast; prepared as described by Dignam J D, Lebovitz R M, Roeder R G., Nucleic Acids Res. 1983, 11(5):1475-89) are used at 18 mg/ml. The reaction mixtures (50 μl) contain 40 mM Tris-HCl (pH 7.9), 6 mM MgCl2, 2 mM spermidine, 10 mM NaCl, 10 mM DTT, 10 μg/ml bovine serum albumin, 100 μM ATP, CTP and GTP, 2 μM UTP, 0.5 μCi [α-^32P]UTP, PUM at the desired concentration, RNAP and template DNA. The templates used for the transcription are the plasmid pGEM3Z (20 nM; Promega Corporation) for the bacterial and phagic RNAPs, and DNA derived from calf thymus (20 μg/ml; Sigma Aldrich) for the eukaryotic polymerases. After 30 min. (bacterial and phagic RNAPs) or 60 min. at 37° C., the amount of radioactivity obtained after precipitation with trichloroacetic acid is measured as previously described (Mariani R, Granata G, Maffioli S I, Serina S, Brunati C, Sosio M, Marazzi A, Vannini A, Patel D, White R, Ciabatti R. Bioorg Med Chem Lett. 2005, 15(16):3748-3752).

The target in another test is B. subtilis β(Q469R) (Bacillus subtilis, UniProt P37870+P37871, Q469R). Briefly: RNAP inhibition, rifampicin-resistant B. subtilis RNAP. Format: biochemical.
Sequence of B. subtilis β(Q469R) (P20429 whole entry): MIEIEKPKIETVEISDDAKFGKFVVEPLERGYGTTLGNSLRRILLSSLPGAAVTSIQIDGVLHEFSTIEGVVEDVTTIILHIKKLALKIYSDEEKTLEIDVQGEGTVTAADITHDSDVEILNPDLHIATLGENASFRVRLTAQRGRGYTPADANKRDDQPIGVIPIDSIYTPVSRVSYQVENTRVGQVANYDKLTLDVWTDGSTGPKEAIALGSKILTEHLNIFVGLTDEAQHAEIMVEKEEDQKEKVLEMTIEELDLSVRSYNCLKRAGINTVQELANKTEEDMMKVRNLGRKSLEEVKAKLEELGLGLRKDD
Sequence of B. subtilis β(Q469R) (P37870 whole entry Q469R): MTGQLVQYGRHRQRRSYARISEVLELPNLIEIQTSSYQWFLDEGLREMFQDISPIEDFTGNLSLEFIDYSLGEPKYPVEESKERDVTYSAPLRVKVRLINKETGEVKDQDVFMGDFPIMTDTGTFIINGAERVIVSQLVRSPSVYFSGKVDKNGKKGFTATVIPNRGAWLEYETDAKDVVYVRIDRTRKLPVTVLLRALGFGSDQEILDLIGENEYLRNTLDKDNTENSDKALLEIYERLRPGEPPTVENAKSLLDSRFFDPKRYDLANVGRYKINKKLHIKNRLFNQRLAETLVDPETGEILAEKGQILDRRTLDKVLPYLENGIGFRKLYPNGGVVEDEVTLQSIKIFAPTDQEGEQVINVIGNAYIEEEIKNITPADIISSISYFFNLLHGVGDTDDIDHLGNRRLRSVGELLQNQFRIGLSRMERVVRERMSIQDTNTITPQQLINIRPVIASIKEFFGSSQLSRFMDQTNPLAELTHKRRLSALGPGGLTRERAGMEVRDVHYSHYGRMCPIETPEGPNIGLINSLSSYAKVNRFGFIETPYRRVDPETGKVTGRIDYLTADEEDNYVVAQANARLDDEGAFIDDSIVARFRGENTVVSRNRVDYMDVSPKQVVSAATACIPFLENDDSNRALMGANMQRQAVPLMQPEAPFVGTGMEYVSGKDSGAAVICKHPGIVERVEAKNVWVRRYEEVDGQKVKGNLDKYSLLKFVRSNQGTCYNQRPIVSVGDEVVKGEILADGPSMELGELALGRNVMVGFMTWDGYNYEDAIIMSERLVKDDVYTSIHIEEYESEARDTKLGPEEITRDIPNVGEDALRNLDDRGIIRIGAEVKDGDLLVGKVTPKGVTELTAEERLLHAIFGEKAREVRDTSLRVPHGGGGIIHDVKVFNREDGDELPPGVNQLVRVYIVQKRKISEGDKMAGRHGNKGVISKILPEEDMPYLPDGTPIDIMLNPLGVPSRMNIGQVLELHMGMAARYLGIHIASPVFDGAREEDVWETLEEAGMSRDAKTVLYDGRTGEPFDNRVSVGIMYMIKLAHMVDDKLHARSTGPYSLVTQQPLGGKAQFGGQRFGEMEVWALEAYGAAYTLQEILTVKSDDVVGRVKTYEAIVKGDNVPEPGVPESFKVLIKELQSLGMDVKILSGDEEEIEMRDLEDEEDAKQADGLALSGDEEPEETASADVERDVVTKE
Sequence of B. subtilis β(Q469R) (P37871 whole entry): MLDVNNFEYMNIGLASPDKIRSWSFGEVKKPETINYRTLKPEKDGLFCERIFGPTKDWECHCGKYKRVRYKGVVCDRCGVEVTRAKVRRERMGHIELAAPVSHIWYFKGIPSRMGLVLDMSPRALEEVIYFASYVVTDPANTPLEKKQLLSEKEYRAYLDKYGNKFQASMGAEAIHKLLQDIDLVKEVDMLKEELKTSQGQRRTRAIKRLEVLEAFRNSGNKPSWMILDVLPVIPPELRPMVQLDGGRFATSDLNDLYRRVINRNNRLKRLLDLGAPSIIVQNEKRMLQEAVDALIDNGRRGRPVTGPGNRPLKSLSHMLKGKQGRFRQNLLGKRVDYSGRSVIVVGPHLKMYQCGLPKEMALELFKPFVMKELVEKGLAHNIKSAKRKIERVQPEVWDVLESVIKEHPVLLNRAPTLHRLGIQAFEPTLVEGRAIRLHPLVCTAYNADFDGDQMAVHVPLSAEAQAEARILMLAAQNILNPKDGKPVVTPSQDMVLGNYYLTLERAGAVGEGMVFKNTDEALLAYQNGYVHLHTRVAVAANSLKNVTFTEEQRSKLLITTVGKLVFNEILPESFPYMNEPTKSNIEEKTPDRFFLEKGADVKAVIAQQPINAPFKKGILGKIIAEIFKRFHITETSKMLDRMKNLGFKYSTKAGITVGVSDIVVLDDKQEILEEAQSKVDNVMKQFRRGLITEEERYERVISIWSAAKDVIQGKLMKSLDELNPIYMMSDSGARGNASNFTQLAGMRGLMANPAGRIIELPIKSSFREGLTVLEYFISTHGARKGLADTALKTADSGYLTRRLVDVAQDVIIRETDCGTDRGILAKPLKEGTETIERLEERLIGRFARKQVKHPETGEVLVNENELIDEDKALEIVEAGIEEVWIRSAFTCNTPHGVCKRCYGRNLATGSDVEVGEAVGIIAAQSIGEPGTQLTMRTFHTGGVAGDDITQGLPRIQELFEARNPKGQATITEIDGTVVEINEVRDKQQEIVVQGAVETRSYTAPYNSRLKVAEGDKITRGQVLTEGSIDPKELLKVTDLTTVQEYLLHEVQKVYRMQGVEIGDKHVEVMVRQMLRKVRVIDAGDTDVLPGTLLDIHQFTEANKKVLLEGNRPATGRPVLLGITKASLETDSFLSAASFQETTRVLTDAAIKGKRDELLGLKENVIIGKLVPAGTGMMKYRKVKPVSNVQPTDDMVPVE
Sequence of B. subtilis β(Q469R) (O35011 whole entry, further chain): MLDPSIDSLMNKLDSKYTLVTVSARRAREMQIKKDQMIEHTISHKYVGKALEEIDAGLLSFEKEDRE
The next test concerns the target T2, B. subtilis RNAP (Bacillus subtilis, UniProt P37870+P37871).
T2 construct: an RNAP purified from either Escherichia coli (Sigma Aldrich) or Bacillus subtilis; made in house; host or cells: Bacillus subtilis
Briefly: RNAP inhibition, B. subtilis RNAP. Format: biochemical. The procedure:
as §1

The subject of a further test is HeLa nuclear extract. Briefly: RNAP inhibition, HeLa nuclear extract. Type of test: biochemical, Human.
The subject of test [1] is Neisseria meningitidis L1612. Briefly: Growth inhibition (MIC), Neisseria meningitidis. Format: cell-based.
The test system of a further test is S. pyogenes C203. Briefly: S. pyogenes peritonitis model in mice. Type of test: in vivo, ICR female mice. As to conditions: for ED50: Streptococcus pyogenes. As for the experimental part:
ICR female mice (Harlan Italia) weighing 23-25 g are acclimated (23±2° C., humidity, 55±10% humidity) for one week before the experiment. The infection is induced by intraperitoneal injection of 4×10^3 CFU of S. pyogenes […] in 0.5 mL of saline containing 1% peptone. 48-72 h after infection, this inoculum leads to a mortality of at least 95% in untreated controls. Eight mice per group for each dose are treated with 0.25 mL of PUM prepared in 5% dextrose. Two different experiments were performed: in the first experiment, PUM is administered intravenously 10 min. after the infection and 6 hours later; in the second experiment, PUM is administered as a single intravenous or subcutaneous dose 10 min. after infection. The mortality of the animals is recorded daily. The ED50 (50% effective dose) and 95% confidence limits are calculated as described (Finney, D. J. 1952. The Spearman-Kärber method. P. 524-30. In D. J. Finney (ed.) Statistical method in biological assay. Charles Griffin & Company Limited, London) for surviving animals at day 7 at each dose.

The next test has as its system Streptococcus pyogenes. Briefly: Growth inhibition (MIC), Streptococcus pyogenes. Format: cell-based. The following applies: Streptococcus pyogenes L49. As for the experimental part: (§2) The antibacterial activity is determined by evaluating the effect on the growth kinetics as described (Holowachuka S, Bal'ab M, Buddington R., 2003, J. Microbiol. Meth. 55, 441-446). Micro-organisms are grown in either Todd Hewitt medium (Streptococcus pyogenes) or cation-adjusted Mueller Hinton Broth (S. aureus, E. faecium, M catarrhalis, E. coli, P. aeruginosa, S. maltophilia) on 96-well microtiter plates. Each bacterial strain is inoculated with 5×10^4 CFU/ml and incubated at 37° C. on the Synergy 2 reader (BioTek), and the optical density is monitored at 595 nm for 48 h.

Another test has as its target T3, T7 RNAP (Escherichia phage T7, UniProt P00573).
T3 construct: purchased Promega Corporation
Briefly: RNAP inhibition, T7 RNAP. Format: biochemical, bacteriophage T7. As for the experimental part:
as §1, with “The templates used for the transcription are the plasmid pGEM3Z (20 nM; Promega Corporation) for the bacterial and phagic RNAPs, and DNA derived from calf thymus (20 μg/ml; Sigma Aldrich) for the eukaryotic polymerases. After 30 min.” left out

For test [2], the system named is T4, bacterial RNAP.
T4 construct: other: RNAP of both Gram-positive and
Briefly: Inhibition of bacterial RNAP. Type of test: biochemical. As to conditions: RNAP of both Gram-positive and Gram-negative bacteria; read-out: IC50 (concentration producing 50% inhibition of enzyme activity), bacterial RNAP.

In test [3] the test system is Haemophilus influenzae L3296. Briefly: Growth inhibition (MIC), Haemophilus influenzae. Type of test: cell-based.
For a further test, the system named is Streptococcus pneumoniae. Briefly: Growth inhibition (MIC), Streptococcus pneumoniae. Type of test: cell-based. The procedure: [Worded in the source for another organism; used here, by the source, with some conditions changed.] as §2
Test [4] relates to Moraxella catarrhalis L3294. Briefly: Growth inhibition (MIC), Moraxella catarrhalis. Type of test: cell-based. As for the experimental part: as §2
The test system of test [5] is Gram-positive and Gram-negative susceptible, resistant and multi-resistant pathogenic bacteria. Briefly: Growth inhibition of pathogenic bacteria. Type of test: cell-based. The following applies: human serum 30%. As for the experimental part: as §2
In test [6] the target is T5, bacterial RNAP (UniProt P0A8T7+P0A8V2).
T5 construct: other: reaction mixture used as is for the bioactivity tests
Briefly: Inhibition of bacterial RNAP. Format: biochemical. The following applies: read-out: IC50, bacterial RNAP; reaction mixture used as is for the bioactivity tests.

T2 sequence (O35011 whole entry): as the sequence (O35011 whole entry, further chain) above
T2 sequence (P37871 whole entry): as the sequence (P37871 whole entry) above
T2 sequence (P20429 whole entry, further chain): as the sequence (P20429 whole entry) above
T2 sequence (P37870 whole entry): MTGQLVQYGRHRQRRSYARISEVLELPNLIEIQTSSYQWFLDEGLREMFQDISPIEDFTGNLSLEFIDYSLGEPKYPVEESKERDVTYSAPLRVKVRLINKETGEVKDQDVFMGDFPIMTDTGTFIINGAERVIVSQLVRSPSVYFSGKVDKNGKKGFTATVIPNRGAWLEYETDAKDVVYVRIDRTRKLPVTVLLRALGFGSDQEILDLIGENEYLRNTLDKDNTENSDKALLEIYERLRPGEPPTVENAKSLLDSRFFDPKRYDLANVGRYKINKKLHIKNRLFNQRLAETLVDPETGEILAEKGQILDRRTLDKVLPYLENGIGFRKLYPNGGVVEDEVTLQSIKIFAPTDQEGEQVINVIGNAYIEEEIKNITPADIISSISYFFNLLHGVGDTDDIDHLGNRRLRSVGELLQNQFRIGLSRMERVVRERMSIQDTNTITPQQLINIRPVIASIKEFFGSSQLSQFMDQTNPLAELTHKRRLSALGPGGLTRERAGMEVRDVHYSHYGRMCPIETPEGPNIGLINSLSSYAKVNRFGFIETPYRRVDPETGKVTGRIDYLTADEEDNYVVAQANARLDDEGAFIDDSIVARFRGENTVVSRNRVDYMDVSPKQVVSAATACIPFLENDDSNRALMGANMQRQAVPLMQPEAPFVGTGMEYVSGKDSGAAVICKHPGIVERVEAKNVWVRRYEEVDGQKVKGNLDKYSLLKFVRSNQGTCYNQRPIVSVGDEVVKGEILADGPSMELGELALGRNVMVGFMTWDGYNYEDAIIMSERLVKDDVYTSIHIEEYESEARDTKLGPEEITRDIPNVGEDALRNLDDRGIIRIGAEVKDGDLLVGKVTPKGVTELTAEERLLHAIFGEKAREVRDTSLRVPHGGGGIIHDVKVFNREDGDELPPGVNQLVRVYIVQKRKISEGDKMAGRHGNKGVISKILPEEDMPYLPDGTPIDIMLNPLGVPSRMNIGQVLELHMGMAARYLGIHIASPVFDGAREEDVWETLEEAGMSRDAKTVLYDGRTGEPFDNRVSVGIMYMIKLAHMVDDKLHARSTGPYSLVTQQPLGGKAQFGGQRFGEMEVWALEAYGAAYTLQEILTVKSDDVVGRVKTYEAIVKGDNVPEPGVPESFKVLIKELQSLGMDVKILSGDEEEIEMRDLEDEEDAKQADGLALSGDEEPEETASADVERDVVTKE
T3 sequence (P00573 whole entry): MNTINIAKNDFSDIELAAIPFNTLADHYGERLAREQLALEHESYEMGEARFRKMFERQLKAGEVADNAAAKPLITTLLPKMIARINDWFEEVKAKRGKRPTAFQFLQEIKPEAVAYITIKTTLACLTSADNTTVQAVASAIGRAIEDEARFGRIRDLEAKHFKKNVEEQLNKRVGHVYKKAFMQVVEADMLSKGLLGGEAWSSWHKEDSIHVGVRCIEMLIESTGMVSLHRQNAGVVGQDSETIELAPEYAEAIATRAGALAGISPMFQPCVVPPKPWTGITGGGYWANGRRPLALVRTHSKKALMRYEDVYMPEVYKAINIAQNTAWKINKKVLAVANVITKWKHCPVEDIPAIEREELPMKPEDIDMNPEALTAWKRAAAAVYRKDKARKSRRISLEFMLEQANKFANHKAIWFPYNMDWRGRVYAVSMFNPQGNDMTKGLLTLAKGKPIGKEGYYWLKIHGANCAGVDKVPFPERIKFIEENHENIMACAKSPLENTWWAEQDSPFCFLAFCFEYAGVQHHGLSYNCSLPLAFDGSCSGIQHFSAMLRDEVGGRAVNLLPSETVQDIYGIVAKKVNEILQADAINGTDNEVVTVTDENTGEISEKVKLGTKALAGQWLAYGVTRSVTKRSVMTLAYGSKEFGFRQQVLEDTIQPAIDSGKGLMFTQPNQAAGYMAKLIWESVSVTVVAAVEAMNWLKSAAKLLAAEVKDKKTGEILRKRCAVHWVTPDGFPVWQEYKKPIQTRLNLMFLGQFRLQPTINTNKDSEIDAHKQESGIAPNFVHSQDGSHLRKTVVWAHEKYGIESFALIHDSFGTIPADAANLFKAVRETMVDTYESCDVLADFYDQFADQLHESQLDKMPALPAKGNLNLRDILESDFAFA

Take `CCc1c(Cl)c(O)c(Cl)c(O)c1C(=O)O[C@H]1[C@H](O)[C@H](OC)[C@H](OC/C2=C\C=C\C[C@H](O)/C(C)=C/[C@H](CC)[C@@H](O[C@@H]3OC(C)(C)[C@@H](OC(=O)C(C)C)[C@H](O)[C@@H]3O)/C(C)=C/C(C)=C/C[C@@H]([C@@H](C)O)OC2=O)O[C@@H]1C` [Fdx, fidaxomicin, reference compound]: the IC50 is 42 µM in the test with NSO nuclear extract; 5.5 µM on E. coli RNAP; 0.7 µM against B. subtilis β(Q469R); 0.9 µM against B. subtilis RNAP; greater than 92 µM in the test with HeLa nuclear extract.
`N=C(N)NCC(=O)N(O)[C@@H](CCC(N)=O)C(=O)NC[C@H]1O[C@@H](c2c[nH]c(=O)[nH]c2=O)[C@H](O)[C@@H]1O` [PUM, Pseudouridimycin]: the IC50 was 205 µM with NSO nuclear extract; 0.3 µM at E. coli RNAP; 0.1 µM at B. subtilis β(Q469R); 0.4 µM on B. subtilis RNAP; greater than 205 µM on T7 RNAP; greater than 74 µM with HeLa nuclear extract. In the test on bacterial RNAP [2], the IC50 is 0.3 to 0.4 µM. Besides, the MIC in [1] turned out to be 10 µg/mL (≈ 20.6 µM); in the test on Streptococcus pyogenes (human serum 30% present), 2 µg/mL; with Streptococcus pyogenes (human serum absent, read-out: MIC), 2 µg/mL; in test [3], 0.8 µg/mL (≈ 1.64 µM); in the test on Streptococcus pneumoniae (Streptococcus pneumoniae L44, human serum 30% present), 2 µg/mL; in the test with Streptococcus pneumoniae (Streptococcus pneumoniae L44, human serum absent), 3 µg/mL. The MIC is 3 µg/mL in the test on Streptococcus pneumoniae (Streptococcus pneumoniae L899-Rif^R, human serum absent); 3 µg/mL in the test with Streptococcus pneumoniae (Streptococcus pneumoniae L1407-Azi^R, human serum absent); 3 µg/mL with Streptococcus pneumoniae (Streptococcus pneumoniae L1542-Ami^REry^RCli^RGen^RTet^R, human serum absent); 3 µg/mL in the test on Streptococcus pneumoniae (Streptococcus pneumoniae L2868-8 MDR, human serum absent); 2 µg/mL in the test on Streptococcus pneumoniae (Streptococcus pneumoniae L3909-Pen^REry^RChl^RCtr^R, human serum absent); 3 µg/mL in the test on Streptococcus pneumoniae (Streptococcus pneumoniae ND061311-Pen^RAzi^R, human serum absent). Further, in [4], the MIC worked out at 0.8 µg/mL. The cross-resistance with rifampicin result on B. subtilis β(Q469R) (RNAP inhibition, Table 1) is given as “without showing any cross-resistance with rifampicin”. The ED50 (commonly the dose at which the effect has come halfway, by size or by number of responders) was 10 mg/kg in the test with S. pyogenes C203 (C203, iv, iv: 10 min. and 6 h post-infection, survival at day 7); 20 mg/kg in the test on S. pyogenes C203 (C203, iv, iv: 10 min. post-infection, survival at day 7); 10 mg/kg in the test with S. pyogenes C203 (C203, murine model of Streptococcus peritonitis, regimen not given); 20 mg/kg in the test on S. pyogenes C203 (C203, sc, sc: 10 min. post-infection, survival at day 7). Besides, the “effectiveness after intravenous versus subcutaneous administration” value in the test on S. pyogenes C203 (murine Streptococcus peritonitis) is reported as “comparable effectiveness”. The “effect of human serum on antibacterial activity” value in [5] was “not affected by the presence of human serum”.
On to `CO[C@H]1/C=C/O[C@@]2(C)Oc3c(C)c(O)c4c(O)c(c(/C=N/N5CCN(C)CC5)c(O)c4c3C2=O)NC(=O)/C(C)=C\C=C\[C@H](C)[C@H](O)[C@@H](C)[C@@H](O)[C@@H](C)[C@H](OC(C)=O)[C@@H]1C` [Rif, rifampicin, reference compound], for which the IC50 at E. coli RNAP was 0.06 µM; against B. subtilis β(Q469R), greater than 121 µM; on B. subtilis RNAP it was 0.05 µM; on T7 RNAP, greater than 121 µM.
Take `N=C(N)NCC(=O)N(O)[C@@H](CCC(=O)NCc1ccccc1)C(=O)NC[C@H]1O[C@@H](c2c[nH]c(=O)[nH]c2=O)[C@H](O)[C@@H]1O` [compound III, PUM benzylamide]: the IC50 on bacterial RNAP [6] worked out at 4 µM.
